These results are taken from publication PMC4583267, “Synthesis and Evaluation of Novel Triterpene Analogues of Ursolic Acid as Potential Antidiabetic Agent” (PLoS ONE, 2015).

T1 sequence (P53341 whole entry): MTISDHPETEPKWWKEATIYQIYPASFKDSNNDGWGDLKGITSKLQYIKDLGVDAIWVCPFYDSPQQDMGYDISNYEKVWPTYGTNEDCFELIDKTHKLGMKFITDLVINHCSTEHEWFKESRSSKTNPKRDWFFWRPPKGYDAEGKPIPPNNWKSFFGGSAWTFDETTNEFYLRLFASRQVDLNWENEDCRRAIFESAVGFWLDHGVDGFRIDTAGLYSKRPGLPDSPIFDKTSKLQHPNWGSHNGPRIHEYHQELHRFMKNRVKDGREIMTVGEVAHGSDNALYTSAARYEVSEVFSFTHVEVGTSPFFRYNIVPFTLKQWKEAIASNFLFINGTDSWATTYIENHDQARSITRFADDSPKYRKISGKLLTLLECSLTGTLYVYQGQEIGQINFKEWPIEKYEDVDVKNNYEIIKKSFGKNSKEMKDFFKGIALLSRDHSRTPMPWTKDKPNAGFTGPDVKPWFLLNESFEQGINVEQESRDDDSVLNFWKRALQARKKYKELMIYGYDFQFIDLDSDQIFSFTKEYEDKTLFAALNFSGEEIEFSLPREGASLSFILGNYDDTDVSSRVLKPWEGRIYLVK

One experiment concerns the target T1, α-glucosidase from baker's yeast (Saccharomyces cerevisiae, UniProt P53341).
T1 construct: purchased
Kind of experiment: biochemical.
Details: not given
As to the method:
A stock solution of each sample, which has been dissolved in dimethylsulfoxide (DMSO) at the concentrations of 0.05 μM to 500 μM, was diluted with 0.1 M phosphate buffer solution (pH = 6.8) containing an appropriate concentration of enzyme solution (0.1 U/mL). After a 10 min pre-incubation at 37°C of the reactions, the substrate (1mM p-nitrophenyl-α-D-glucopyranoside) was added to initiate them. Then the reactions were incubated for 30 min at 37°C before they were terminated by adding 1 M Na2CO3, and their optical density values were measured at 405 nm by using a Multimodel Plate Reader (Infinite 200). Each experiment was repeated at least four times.
To determine the inhibition activity of each sample, the enzyme activity was measured at a fixed substrate concentration, in which a sequence of sample concentrations were tested. The IC50 value was calculated according to the curve fit to the sequence of concentrations versus the corresponding inhibition abilities. The results were illustrated in Table 1 and Fig 3.
The α-glucosidase inhibition assay was performed according to the method of Worawalai et al. with a slight modification. The α-glucosidase enzyme (0.1 U/mL) and substrate (1 mM p-nitrophenyl-α-D-glucopyranoside) were dissolved in 0.1 M phosphate buffer, pH 6.8. 10 μL of each synthesized analogue (1 mg/mL in DMSO) was pre-incubated with 8 μL of α-glucosidase at 37°C for 10 min. A 100 μL of substrate solution was then added to the reaction mixture, which was further incubated at 37°C for 30 min. Then, the reaction was terminated by adding 100 μL of 1 M Na2CO3 solution. Enzymatic activity was quantified by measuring the absorbance at 405 nm with a use of a Multimodel Plate Reader (Infinite 200). The percentage of inhibition was calculated by using [(A 0-A 1)/A 0]×100%, where A 0 was the absorbance without the sample, and A 1 was the absorbance with the sample. The IC50 value was determined from a plot of the percentage of inhibition versus the sample concentration.
`C[C@H]1[C@H](C)CC[C@]2(C(=O)O)CC[C@]3(C)C(=CC[C@@H]4[C@@]5(C)CC[C@H](O)C(C)(C)[C@@H]5CC[C@]43C)[C@H]12` [Analogue 1, 3β-hydroxy-urs-12-en-28-oic acid, reference compound] registered an IC50 of 5.08 ± 0.7 µM.
The same measure, in the same setting: the result for `C[C@@H]1CC[C@]2(C(=O)O)CC[C@]3(C)C(=CCC4[C@@]5(C)CCC(=O)C(C)(C)C5CC[C@]43C)C2[C@H]1C` (stereo partly shown) [Analogue 11, 3-Oxo-urs-12-en-28-oic acid] reads 2.47 µM.

The experiment is the same for the next values; noted with them: Table 1; read-out: Observed pIC50 (converted).
For the molecule `C[C@@H]1CC[C@]2(C(=O)Nc3ccc(Cl)cc3)CC[C@]3(C)C(=CCC4[C@@]5(C)CC[C@H](O)C(C)(C)C5CC[C@]43C)C2[C@H]1C` (stereo partly drawn) [Analogue 8b, N-[3β-Hydroxy-urs-12-en-28-oyl]-p-chloroaniline], the IC50 is 1.27 µM.
Still for that read-out and setting: the result for `C[C@@H]1CC[C@]2(C(=O)Nc3ccccc3)CC[C@]3(C)C(=CCC4[C@@]5(C)CC[C@H](O)C(C)(C)C5CC[C@]43C)C2[C@H]1C` (stereo partly drawn) [Analogue 3b, N-[3β-Hydroxy-urs-12-en-28-oyl]-aminobenzene] reads 1.69 µM; that for `C[C@@H]1CC[C@]2(C(=O)Nc3ccc(F)cc3)CC[C@]3(C)C(=CCC4[C@@]5(C)CC[C@H](O)C(C)(C)C5CC[C@]43C)C2[C@H]1C` (stereo partly drawn) [Analogue 7b, N-[3β-Hydroxy-urs-12-en-28-oyl]-p-fluoroaniline], 1.67 µM; that for `C[C@@H]1CC[C@]2(C(=O)Nc3ccccc3F)CC[C@]3(C)C(=CCC4[C@@]5(C)CC[C@H](O)C(C)(C)C5CC[C@]43C)C2[C@H]1C` (stereo partly drawn) [Analogue 4b, N-[3β-Hydroxy-urs-12-en-28-oyl]-o-fluoroaniline], 1.51 µM.
Turning to `C[C@@H]1CC[C@]2(C(=O)Nc3ccc(Br)cc3)CC[C@]3(C)C(=CCC4[C@@]5(C)CC[C@H](O)C(C)(C)C5CC[C@]43C)C2[C@H]1C` (stereo partly drawn) [Analogue 9b, N-[3β-Hydroxy-urs-12-en-28-oyl]-p-bromoaniline], the IC50 is 1.28 µM.
For the molecule `COc1ccc(NC(=O)[C@]23CC[C@@H](C)[C@H](C)C2C2=CCC4[C@@]5(C)CC[C@H](OC(C)=O)C(C)(C)C5CC[C@@]4(C)[C@]2(C)CC3)cc1` (stereo partly drawn) [Analogue 10a, N-[3β-acetoxy-urs-12-en-28-oyl]-p-methoxyamiline], the IC50 was 2.01 µM.
On the same count and under the same terms, the result for `C[C@@H]1CC[C@]2(C(=O)Nc3ccccc3Cl)CC[C@]3(C)C(=CCC4[C@@]5(C)CC[C@H](O)C(C)(C)C5CC[C@]43C)C2[C@H]1C` (stereo partly drawn) [Analogue 5b, N-[3β-Hydroxy-urs-12-en-28-oyl]-o-chloroaniline] reads 1.31 µM.
Same read-out and setting: as for `COc1ccc(NC(=O)[C@]23CC[C@@H](C)[C@H](C)C2C2=CCC4[C@@]5(C)CC[C@H](O)C(C)(C)C5CC[C@@]4(C)[C@]2(C)CC3)cc1` (stereo partly drawn) [Analogue 10b, N-[3β-Hydroxy-urs-12-en-28-oyl]-p-methoxylaniline], the figure is 2.55 µM.
On the same count and under the same terms, as for `C[C@@H]1CC[C@]2(C(=O)Nc3ccccc3Br)CC[C@]3(C)C(=CCC4[C@@]5(C)CC[C@H](O)C(C)(C)C5CC[C@]43C)C2[C@H]1C` (stereo partly drawn) [Analogue 6b, N-[3β-Hydroxy-urs-12-en-28-oyl]-o-bromoaniline], the figure is 2.56 µM.

Another experiment concerns the target T1, α-glucosidase from baker's yeast.
Test: not given
The note with it: S4 Table; analogues of previous work; cited from earlier work.
`CC(=O)O[C@H]1CC[C@@]2(C)C(CC[C@]3(C)C2CC=C2C4[C@@H](C)[C@H](C)CC[C@]4(C(=O)O)CC[C@]23C)C1(C)C` (stereo partly shown) [Analogue 2]: the “Observed pIC50” value is on record as 5.278.
With `CC(=O)O[C@H]1CC[C@@]2(C)C(CC[C@]3(C)C2CC=C2C4[C@@H](C)[C@H](C)CC[C@]4(C(=O)Nc4ccccc4Cl)CC[C@]23C)C1(C)C` (stereo partly shown) [Analogue 5a], the “Observed pIC50” value is given as 4.481.
On to `CC(=O)O[C@H]1CC[C@@]2(C)C(CC[C@]3(C)C2CC=C2C4[C@@H](C)[C@H](C)CC[C@]4(C(=O)Nc4ccccc4)CC[C@]23C)C1(C)C` (stereo partly shown) [Analogue 3a], for which the “Observed pIC50” value is reported as 5.249.
With `CC(=O)O[C@H]1CC[C@@]2(C)C(CC[C@]3(C)C2CC=C2C4[C@@H](C)[C@H](C)CC[C@]4(C(=O)Nc4ccc(Cl)cc4)CC[C@]23C)C1(C)C` (stereo partly shown) [Analogue 8a], the “Observed pIC50” value is recorded as 5.489.
`CC(=O)O[C@H]1CC[C@@]2(C)C(CC[C@]3(C)C2CC=C2C4[C@@H](C)[C@H](C)CC[C@]4(C(=O)Nc4ccc(Br)cc4)CC[C@]23C)C1(C)C` (stereo partly shown) [Analogue 9a]: the “Observed pIC50” value is 5.030.
As for `CC(=O)O[C@H]1CC[C@@]2(C)C(CC[C@]3(C)C2CC=C2C4[C@@H](C)[C@H](C)CC[C@]4(C(=O)Nc4ccccc4F)CC[C@]23C)C1(C)C` (stereo partly shown) [Analogue 4a], the “Observed pIC50” value is reported as 4.848.
Regarding `CC(=O)O[C@H]1CC[C@@]2(C)C(CC[C@]3(C)C2CC=C2C4[C@@H](C)[C@H](C)CC[C@]4(C(=O)Nc4ccccc4Br)CC[C@]23C)C1(C)C` (stereo partly shown) [Analogue 6a], the “Observed pIC50” value is reported as 4.954.
For `CC(=O)O[C@H]1CC[C@@]2(C)C(CC[C@]3(C)C2CC=C2C4[C@@H](C)[C@H](C)CC[C@]4(C(=O)Nc4ccc(F)cc4)CC[C@]23C)C1(C)C` (stereo partly shown) [Analogue 7a], the “Observed pIC50” value is recorded as 5.185.

The experiment is the same for the next values; noted with them: values of earlier work; cited from earlier work.
With `CC(=O)O[C@H]1CC[C@@]2(C)C(CC[C@]3(C)C2CC=C2C4[C@@H](C)[C@H](C)CC[C@]4(C(=O)O)CC[C@]23C)C1(C)C` (stereo partly shown) [Analogue 2], the IC50 is 5.27 ± 0.35 µM.
Regarding `CC(=O)O[C@H]1CC[C@@]2(C)C(CC[C@]3(C)C2CC=C2C4[C@@H](C)[C@H](C)CC[C@]4(C(=O)Nc4ccccc4)CC[C@]23C)C1(C)C` (stereo partly shown) [Analogue 3a], the IC50 is 5.64 ± 1.12 µM.
For `CC(=O)O[C@H]1CC[C@@]2(C)C(CC[C@]3(C)C2CC=C2C4[C@@H](C)[C@H](C)CC[C@]4(C(=O)Nc4ccc(Cl)cc4)CC[C@]23C)C1(C)C` (stereo partly shown) [Analogue 8a], the IC50 was 3.24 ± 0.21 µM.
